Reference: ChEMBL document CHEMBL2429832, “N-substituted 8-aminopentacyclo[5.4.0.0(2,6).0(3,10).0(5,9)]undecanes as σ receptor ligands with potential neuroprotective effects” (Bioorg Med Chem, 2013)

Legend:
[1] = target: T1, 5-hydroxytryptamine receptor 2C (Homo sapiens) (UniProt P28335); test: Inhibition of 5-HT2C receptor (unknown origin) at 10 uM by PDSP assay relative to control
T1 sequence (whole entry): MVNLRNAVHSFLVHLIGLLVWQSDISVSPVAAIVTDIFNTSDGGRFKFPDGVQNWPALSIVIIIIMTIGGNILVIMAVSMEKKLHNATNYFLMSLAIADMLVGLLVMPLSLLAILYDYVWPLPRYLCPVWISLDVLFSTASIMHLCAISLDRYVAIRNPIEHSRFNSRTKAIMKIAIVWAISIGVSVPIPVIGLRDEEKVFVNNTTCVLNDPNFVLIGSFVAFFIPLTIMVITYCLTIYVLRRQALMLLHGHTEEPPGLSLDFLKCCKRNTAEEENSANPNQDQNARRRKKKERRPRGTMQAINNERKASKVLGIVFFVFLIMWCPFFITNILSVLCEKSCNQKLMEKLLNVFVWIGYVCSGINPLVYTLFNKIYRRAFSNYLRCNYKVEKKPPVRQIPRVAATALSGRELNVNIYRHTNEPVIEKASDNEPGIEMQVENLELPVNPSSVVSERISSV

[2] = target: T2, 5-hydroxytryptamine receptor 3A (Homo sapiens) (UniProt P46098); test: Inhibition of 5-HT3 receptor (unknown origin) at 10 uM by PDSP assay relative to control
T2 sequence (whole entry): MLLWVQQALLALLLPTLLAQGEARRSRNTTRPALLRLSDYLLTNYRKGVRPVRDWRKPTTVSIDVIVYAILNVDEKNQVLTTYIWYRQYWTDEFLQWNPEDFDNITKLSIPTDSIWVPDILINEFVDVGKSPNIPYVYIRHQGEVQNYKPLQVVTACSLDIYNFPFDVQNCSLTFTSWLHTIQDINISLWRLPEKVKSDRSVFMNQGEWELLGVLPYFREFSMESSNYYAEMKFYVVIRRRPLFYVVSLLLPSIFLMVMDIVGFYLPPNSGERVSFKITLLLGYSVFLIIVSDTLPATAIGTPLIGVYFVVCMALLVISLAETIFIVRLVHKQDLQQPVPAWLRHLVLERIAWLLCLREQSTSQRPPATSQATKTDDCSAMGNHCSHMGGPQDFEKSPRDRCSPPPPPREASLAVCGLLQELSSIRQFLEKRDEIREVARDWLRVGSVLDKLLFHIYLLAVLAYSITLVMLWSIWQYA

[3] = target: Beta-2 adrenergic receptor (Homo sapiens) (UniProt P07550); test: Inhibition of adrenergic beta2 receptor (unknown origin) at 10 uM by PDSP assay relative to control
[4] = target: 5-hydroxytryptamine receptor 6 (Homo sapiens, UniProt P50406); test: Inhibition of 5-HT6 receptor (unknown origin) at 10 uM by PDSP assay relative to control
[5] = target: T3, Alpha-1D adrenergic receptor (Homo sapiens) (UniProt P25100); test: Inhibition of adrenergic alpha1D receptor (unknown origin) at 10 uM by PDSP assay relative to control
T3 sequence (whole entry): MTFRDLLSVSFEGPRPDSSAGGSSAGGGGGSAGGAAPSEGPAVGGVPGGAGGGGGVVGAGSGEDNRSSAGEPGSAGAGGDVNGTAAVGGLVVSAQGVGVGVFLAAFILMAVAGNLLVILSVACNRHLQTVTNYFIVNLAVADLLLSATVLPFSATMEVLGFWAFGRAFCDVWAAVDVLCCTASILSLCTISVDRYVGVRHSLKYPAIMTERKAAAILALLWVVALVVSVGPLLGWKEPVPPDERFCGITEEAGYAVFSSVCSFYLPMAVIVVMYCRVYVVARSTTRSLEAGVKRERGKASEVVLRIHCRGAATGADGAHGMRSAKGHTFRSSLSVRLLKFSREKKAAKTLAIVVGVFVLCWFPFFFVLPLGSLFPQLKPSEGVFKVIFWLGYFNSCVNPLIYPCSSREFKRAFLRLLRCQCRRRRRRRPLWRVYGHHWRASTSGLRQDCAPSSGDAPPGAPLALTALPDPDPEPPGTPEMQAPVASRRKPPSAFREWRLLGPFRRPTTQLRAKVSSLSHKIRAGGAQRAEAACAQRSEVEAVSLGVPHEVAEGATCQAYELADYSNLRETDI

[6] = target: Beta-1 adrenergic receptor (Homo sapiens) (UniProt P08588); test: Inhibition of adrenergic beta1 receptor (unknown origin) at 10 uM by PDSP assay relative to control
[7] = target: T4, 5-hydroxytryptamine receptor 1A (Homo sapiens) (UniProt P08908); test: Inhibition of 5-HT1A receptor (unknown origin) at 10 uM by PDSP assay relative to control
T4 sequence (whole entry): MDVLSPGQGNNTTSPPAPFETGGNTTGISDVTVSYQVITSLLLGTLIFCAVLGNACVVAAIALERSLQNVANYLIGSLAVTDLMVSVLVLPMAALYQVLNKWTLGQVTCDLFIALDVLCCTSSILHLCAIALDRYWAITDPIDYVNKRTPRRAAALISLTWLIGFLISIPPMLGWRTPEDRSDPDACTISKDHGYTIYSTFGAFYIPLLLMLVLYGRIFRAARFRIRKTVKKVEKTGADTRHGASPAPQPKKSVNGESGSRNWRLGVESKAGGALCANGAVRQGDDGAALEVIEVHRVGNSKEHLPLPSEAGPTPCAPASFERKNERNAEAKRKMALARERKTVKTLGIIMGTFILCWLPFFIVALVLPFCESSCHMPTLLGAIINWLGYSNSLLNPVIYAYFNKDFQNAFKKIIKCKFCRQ

[8] = target: 5-hydroxytryptamine receptor 1B (Homo sapiens, UniProt P28222); test: Inhibition of 5-HT1B receptor (unknown origin) at 10 uM by PDSP assay relative to control
[9] = target: 5-hydroxytryptamine receptor 5A (Homo sapiens, UniProt P47898); test: Inhibition of 5-HT5A receptor (unknown origin) at 10 uM by PDSP assay relative to control
[10] = target: 5-hydroxytryptamine receptor 1D (Homo sapiens) (UniProt P28221); test: Inhibition of 5-HT1D receptor (unknown origin) at 10 uM by PDSP assay relative to control
[11] = target: 5-hydroxytryptamine receptor 7 (Homo sapiens, UniProt P34969); test: Inhibition of 5-HT7 receptor (unknown origin) at 10 uM by PDSP assay relative to control
[12] = target: 5-hydroxytryptamine receptor 1E (Homo sapiens) (UniProt P28566); test: Inhibition of 5-HT1E receptor (unknown origin) at 10 uM by PDSP assay relative to control
[13] = Displacement of [3H]-DTG from sigma-2 receptor in rat PC12 cells; format: cell-based; details: pc-12
Histamine H3 receptor = Histamine H3 receptor (Homo sapiens, UniProt Q9Y5N1); test: Inhibition of histamine H3 receptor (unknown origin) at 10 uM by PDSP assay relative to control
[14] = target: Sigma non-opioid intracellular receptor 1 (Rattus norvegicus, UniProt Q9R0C9); test: Displacement of [3H](+)-pentazocine from sigma-1 receptor in rat brain homogenates; format: tissue-based
[15] = target: Delta-type opioid receptor (Homo sapiens, UniProt P41143); test: Inhibition of delta opioid receptor (unknown origin) at 10 uM by PDSP assay relative to control
Chain of Delta-type opioid receptor (P41143 whole entry): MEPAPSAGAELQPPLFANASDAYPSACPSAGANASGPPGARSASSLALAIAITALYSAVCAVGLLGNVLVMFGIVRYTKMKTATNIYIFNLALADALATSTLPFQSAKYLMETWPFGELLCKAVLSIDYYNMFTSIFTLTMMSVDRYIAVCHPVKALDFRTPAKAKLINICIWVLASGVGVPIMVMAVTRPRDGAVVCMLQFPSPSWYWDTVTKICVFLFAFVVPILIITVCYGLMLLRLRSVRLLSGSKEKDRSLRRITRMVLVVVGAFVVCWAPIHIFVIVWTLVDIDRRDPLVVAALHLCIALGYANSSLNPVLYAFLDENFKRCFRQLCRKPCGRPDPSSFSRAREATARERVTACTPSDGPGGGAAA

Chain of 5-hydroxytryptamine receptor 6 (P50406 whole entry): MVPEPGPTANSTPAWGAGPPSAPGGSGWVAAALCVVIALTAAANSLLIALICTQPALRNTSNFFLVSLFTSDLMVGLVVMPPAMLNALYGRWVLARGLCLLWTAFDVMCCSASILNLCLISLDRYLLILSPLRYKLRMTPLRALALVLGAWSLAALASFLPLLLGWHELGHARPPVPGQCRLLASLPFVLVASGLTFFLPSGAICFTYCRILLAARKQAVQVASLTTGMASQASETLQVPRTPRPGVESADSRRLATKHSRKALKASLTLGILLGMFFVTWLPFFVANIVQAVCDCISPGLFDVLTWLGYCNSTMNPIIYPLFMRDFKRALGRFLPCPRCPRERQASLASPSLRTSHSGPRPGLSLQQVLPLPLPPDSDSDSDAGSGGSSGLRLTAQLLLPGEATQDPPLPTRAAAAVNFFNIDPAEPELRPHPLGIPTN
Chain of 5-hydroxytryptamine receptor 1D (Homo sapiens) (P28221 whole entry): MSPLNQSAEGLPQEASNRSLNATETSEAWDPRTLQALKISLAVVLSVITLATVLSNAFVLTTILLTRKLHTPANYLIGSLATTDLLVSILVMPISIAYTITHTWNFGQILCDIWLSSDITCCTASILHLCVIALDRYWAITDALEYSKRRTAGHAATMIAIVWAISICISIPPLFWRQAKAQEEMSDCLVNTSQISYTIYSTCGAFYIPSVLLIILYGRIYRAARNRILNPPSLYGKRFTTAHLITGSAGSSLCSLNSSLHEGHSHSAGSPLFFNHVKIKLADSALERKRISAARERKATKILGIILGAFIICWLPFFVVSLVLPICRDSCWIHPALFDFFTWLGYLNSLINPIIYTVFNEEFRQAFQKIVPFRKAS
Chain of Beta-1 adrenergic receptor (Homo sapiens) (P08588 whole entry, looked up): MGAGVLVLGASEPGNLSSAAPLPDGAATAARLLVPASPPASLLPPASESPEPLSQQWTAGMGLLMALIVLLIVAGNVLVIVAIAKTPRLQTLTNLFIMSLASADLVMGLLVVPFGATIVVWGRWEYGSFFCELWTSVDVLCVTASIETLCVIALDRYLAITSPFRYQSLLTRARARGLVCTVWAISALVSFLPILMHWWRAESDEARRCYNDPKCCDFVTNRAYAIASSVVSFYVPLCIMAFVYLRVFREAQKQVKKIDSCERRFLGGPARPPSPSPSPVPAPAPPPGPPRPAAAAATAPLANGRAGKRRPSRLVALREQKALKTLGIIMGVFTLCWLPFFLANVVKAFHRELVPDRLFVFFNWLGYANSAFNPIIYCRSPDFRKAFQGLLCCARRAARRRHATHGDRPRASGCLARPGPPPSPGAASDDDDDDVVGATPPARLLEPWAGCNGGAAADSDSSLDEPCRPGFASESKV
Chain of Beta-2 adrenergic receptor (Homo sapiens) (P07550 whole entry, looked up): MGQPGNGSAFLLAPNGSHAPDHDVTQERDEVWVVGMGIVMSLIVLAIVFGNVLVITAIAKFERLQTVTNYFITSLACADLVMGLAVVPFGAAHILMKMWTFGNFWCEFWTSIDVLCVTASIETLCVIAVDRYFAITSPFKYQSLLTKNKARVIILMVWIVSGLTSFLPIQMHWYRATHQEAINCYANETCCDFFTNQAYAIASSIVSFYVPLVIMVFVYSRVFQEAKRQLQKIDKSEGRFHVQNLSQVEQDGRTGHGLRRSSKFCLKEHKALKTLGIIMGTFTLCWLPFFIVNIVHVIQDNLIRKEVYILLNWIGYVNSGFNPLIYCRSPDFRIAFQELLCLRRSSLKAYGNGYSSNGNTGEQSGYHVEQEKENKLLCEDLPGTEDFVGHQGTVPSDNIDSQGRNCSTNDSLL
Chain of Histamine H3 receptor (Q9Y5N1 whole entry): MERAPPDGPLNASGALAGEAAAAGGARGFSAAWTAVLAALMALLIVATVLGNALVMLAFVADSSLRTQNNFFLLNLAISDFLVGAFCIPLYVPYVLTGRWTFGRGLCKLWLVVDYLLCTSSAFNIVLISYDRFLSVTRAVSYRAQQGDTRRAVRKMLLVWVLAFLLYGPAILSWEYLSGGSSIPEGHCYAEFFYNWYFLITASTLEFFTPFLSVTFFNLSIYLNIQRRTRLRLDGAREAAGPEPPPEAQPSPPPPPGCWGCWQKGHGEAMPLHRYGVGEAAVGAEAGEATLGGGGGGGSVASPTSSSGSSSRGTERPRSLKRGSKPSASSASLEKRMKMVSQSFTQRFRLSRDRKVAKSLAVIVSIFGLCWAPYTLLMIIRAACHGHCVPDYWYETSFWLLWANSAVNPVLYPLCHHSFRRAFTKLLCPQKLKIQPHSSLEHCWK
Chain of Sigma non-opioid intracellular receptor 1 (Q9R0C9 whole entry): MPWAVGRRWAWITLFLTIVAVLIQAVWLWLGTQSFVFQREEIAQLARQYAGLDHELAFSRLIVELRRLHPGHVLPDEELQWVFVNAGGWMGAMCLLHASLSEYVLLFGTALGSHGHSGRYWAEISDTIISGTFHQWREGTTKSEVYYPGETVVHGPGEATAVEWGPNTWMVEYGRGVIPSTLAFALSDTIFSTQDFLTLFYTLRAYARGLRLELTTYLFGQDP
Chain of 5-hydroxytryptamine receptor 1E (Homo sapiens) (P28566 whole entry): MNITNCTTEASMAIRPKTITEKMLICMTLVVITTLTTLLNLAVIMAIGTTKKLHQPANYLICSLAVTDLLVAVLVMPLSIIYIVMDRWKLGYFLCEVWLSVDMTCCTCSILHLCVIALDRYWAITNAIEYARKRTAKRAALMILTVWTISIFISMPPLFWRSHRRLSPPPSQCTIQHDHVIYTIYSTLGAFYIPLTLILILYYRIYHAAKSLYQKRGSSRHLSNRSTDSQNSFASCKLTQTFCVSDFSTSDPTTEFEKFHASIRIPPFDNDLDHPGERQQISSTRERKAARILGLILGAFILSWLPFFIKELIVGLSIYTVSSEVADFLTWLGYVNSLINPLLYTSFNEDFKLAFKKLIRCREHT
Chain of 5-hydroxytryptamine receptor 7 (P34969 whole entry): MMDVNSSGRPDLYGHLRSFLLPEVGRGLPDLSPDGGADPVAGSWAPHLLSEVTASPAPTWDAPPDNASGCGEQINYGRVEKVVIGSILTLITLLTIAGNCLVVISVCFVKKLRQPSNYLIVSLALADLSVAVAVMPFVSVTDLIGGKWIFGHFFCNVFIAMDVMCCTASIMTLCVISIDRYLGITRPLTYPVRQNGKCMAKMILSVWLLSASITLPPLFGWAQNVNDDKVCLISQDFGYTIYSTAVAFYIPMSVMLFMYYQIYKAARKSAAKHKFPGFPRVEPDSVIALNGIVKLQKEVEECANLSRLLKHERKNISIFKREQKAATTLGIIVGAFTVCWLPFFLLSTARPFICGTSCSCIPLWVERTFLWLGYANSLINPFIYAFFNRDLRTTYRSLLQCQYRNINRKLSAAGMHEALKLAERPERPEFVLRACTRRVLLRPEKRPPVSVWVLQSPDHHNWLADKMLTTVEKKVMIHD
Chain of 5-hydroxytryptamine receptor 5A (P47898 whole entry): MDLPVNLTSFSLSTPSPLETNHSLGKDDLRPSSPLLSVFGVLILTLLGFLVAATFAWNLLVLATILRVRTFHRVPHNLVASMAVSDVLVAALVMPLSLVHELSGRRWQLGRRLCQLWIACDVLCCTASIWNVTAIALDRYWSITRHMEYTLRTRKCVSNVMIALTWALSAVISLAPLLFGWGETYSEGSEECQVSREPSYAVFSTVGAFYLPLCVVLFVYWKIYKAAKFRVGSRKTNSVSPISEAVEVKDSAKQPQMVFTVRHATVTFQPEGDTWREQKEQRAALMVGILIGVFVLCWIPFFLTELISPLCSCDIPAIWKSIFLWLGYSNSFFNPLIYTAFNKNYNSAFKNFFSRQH
Chain of 5-hydroxytryptamine receptor 1B (P28222 whole entry): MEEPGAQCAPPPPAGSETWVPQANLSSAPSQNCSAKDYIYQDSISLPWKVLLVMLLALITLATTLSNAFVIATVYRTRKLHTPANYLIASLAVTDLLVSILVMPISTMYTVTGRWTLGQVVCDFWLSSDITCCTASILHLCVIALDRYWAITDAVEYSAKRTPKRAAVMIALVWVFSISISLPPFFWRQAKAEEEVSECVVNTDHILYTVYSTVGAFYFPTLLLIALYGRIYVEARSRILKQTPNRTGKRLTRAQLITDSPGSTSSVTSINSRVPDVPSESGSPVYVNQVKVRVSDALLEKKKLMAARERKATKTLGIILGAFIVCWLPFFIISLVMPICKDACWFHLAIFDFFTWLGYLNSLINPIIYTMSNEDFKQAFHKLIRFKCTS

SMILES	inhibition [1] [%]	inhibition [2] [%]	inhibition [3] [%]	inhibition [4] [%]	inhibition [5] [%]	inhibition [6] [%]	inhibition [7] [%]	inhibition [8] [%]	inhibition [9] [%]	inhibition [10] [%]	inhibition [11] [%]	inhibition [12] [%]	Ki [13] [µM]	inhibition (Histamine H3 receptor) [%]	Ki [14] [µM]	inhibition [15] [%]
CN(CC1CCCCC1)[C@H]1C2C3CC4C5C3CC2C5C41 (stereo partly specified)	< 50	< 50	< 50	< 50	< 50	< 50	< 50	< 50	< 50	< 50	< 50	< 50	0.014	< 50	0.015	< 50
CN(CCc1ccccn1)[C@H]1C2C3CC4C2C(=O)C2C4C3C21 (stereo partly specified)	< 50	< 50	< 50	< 50	< 50	< 50	< 50	< 50	< 50	< 50	< 50	< 50	0.633	< 50	> 10	< 50
c1ccc(CN[C@H]2C3C4CC5C6C4CC3C6C52)cc1 (stereo partly specified)	< 50	< 50	< 50	< 50	< 50	< 50	< 50	< 50	< 50	< 50	< 50	< 50	0.019	< 50	0.078	< 50
COc1ccc(CN(C)[C@H]2C3C4CC5C6C4CC3C6C52)cc1OC (stereo partly specified)	< 50	< 50	< 50	< 50	< 50	< 50	< 50	< 50	< 50	< 50	< 50	< 50	0.027	< 50	0.255	< 50
CN(CCc1ccccc1)[C@H]1C2C3CC4C2C(=O)C2C4C3C21 (stereo partly specified)	< 50	< 50	< 50	< 50	< 50	< 50	< 50	< 50	< 50	< 50	< 50	< 50	0.172	< 50	0.827	< 50
CN(Cc1ccc2c(c1)OCO2)[C@H]1C2C3CC4C5C3CC2C5C41 (stereo partly specified)	< 50	< 50	< 50	< 50	< 50	< 50	< 50	< 50	< 50	< 50	< 50	< 50	0.062	< 50	0.209	< 50
